Results: US8633236B2, “Compounds, compositions and methods” (Cytokinetics, Inc., priority 2002, dated 2014)

Experiments:
[1] = Potency comparison of separated enantiomers (test not specified); settings: (R)- versus (S)-enantiomer separated on Chiralpak AD
Procedure: An enriched 3:1 R:S mixture of chromenone enantiomers was separated into its pure enantiomers by chiral chromatography with the following conditions: Column—Chiralpak AD, 250×4.6 mm (Diacel Inc.). Sample—22.5 mg/ml in 1:1 i-PrOH:hexanes. Conditions—40 min at isocratic 50% i-PrOH in Hexanes, (S)-enantiomer elutes at 18.35 min, (R)-enantiomer elutes at 26.87 min.

A549 cells = settings: cited from earlier work

SMILES	relative potency of enantiomers [1]	GI50 (A549 cells) [µM]
Cc1ccc(C(=O)N(CCCN)[C@@H](c2oc3cc(Cl)ccc3c(=O)c2Cc2ccccc2)C(C)C)cc1 (single isomer, unassigned) [Example 2 (R)-enantiomer]	significantly more potent than the (S)-enantiomer	
O=c1[nH]cc(F)c(=O)[nH]1 [5-fluorouracil]		1
COc1cccc2c1C(=O)c1c(O)c3c(c(O)c1C2=O)C[C@@](O)(C(=O)CO)C[C@@H]3O[C@H]1C[C@H](N)[C@H](O)[C@H](C)O1 [doxorubicin]		0.063
NC(=O)NO [hydroxyurea]		500
CC(=O)O[C@H]1C(=O)[C@@]2(C)[C@H]([C@H](OC(=O)c3ccccc3)[C@]3(O)C[C@H](OC(=O)[C@H](O)[C@@H](NC(=O)c4ccccc4)c4ccccc4)C(C)=C1C3(C)C)[C@]1(OC(C)=O)CO[C@@H]1C[C@@H]2O [paclitaxel]		0.004
